# According to US10730848B2 (priority 2013, dated 2020):
# “Also recorded” adds a separate entry of the source. Where two headings read alike, the source gives them in different places.
# How the values were obtained:
# [1] = test system: anthrax lethal toxin (LT); assay: cells; assay type: cell-based, murine
# [2] = test system: anthrax lethal toxin (LT); assay type: cell-based
# [3] = test system: acidic compartments; assay type: cell-based
# [4] = test system: EGFR; assay type: cell-based
# [5] = test system: LT; details: read-out: IC50 of previously reported toxin entry inhibitors; cited from earlier work
# [6] = test system: influenza A/WSN/33 virus; assay type: cell-based
# [7] = test system: THP-1 cells; assay type: cell-based, human
# [8] = test system: F. tularensis LVS; assay type: cell-based
# [9] = Mus musculus, RAW264.7, read-out: IC50, inhibition of LT-induced cell death
# [10] = Mus musculus, RAW264.7, read-out: IC50 (In uM)
Compound,"IC50 [1, 9] [µM]","IC50 ([1]; Mus musculus, RAW264.7) [µM]","IC50 [1, 10] [µM]",other results
"Cc1cccc(C)c1NC(=O)N/N=C/c1ccc(N=[N+]=[N-])cc1F [Compound 3, N^1-(4-AZIDO-2-FLUOROBENZYLIDENE)-N^4-(2,6-DIMETHYLPHENYL)SEMICARBAZONE]",2.2,,,protection against LT after UV irradiation and washout (media exchange) [2]: did not provide protection; also recorded: did not offer statistically significant protection
"Cc1cccc(C)c1NC(=O)N/N=C/c1ccc(N=[N+]=[N-])cc1 [Compound 4, N^1-(4-AZIDOBENZYLIDENE)-N^4-(2,6-DIMETHYLPHENYL)SEMICARBAZONE]",~3,2.8,2.82,protection against LT after UV irradiation and washout (media exchange) [2]: retained viability; also recorded: statistically significant protection; also recorded: conferred irreversible resistance to LT
"Cc1cccc(C)c1NC(=O)N/N=C/c1c(F)c(F)c(N=[N+]=[N-])c(F)c1F [Compound 5, N^1-(4-AZIDO-2,3,5,6-TETRAFLUOROBENZYLIDENE)-N^4-(2,6-DIMETHYLPHENYL)SEMICARBAZONE]",,,,protection of cells from LT (in words) [1]: poor inhibitor; also recorded: only weakly protective; protection against LT after UV irradiation and washout (media exchange) [2]: statistically significant protection; also recorded: most effective irreversible protection; also recorded: conferred irreversible resistance to LT
"Cc1cccc(C)c1NC(=O)N/N=C/c1ccc(Br)o1 [Compound 13v, N^1-(5-BROMOFURAN-2-YLMETHYLENE)-N^4-(2,6-DIMETHYLPHENYL)SEMICARBAZONE]",,> 25,,IC50 [1]: > 25 µM
"Cc1cccc(C)c1NC(=O)N/N=C/c1cccs1 [Compound 13w, N^1-(THIOPHENE-2-YLMETHYLENE)-N^4-(2,6-DIMETHYLPHENYL)SEMICARBAZONE]",,> 25,,IC50 [1]: > 25 µM
"Cc1cccc(C)c1NC(=O)N/N=C/c1ccc(Br)s1 [Compound 13x, N^1-(5-BROMOTHIOPHENE-2-YLMETHYLENE)-N^4-(2,6-DIMETHYLPHENYL)SEMICARBAZONE]",1.7,1.67,,
"Cc1cccc(C)c1NC(=O)N/N=C/c1c(F)cc(Br)cc1F [Compound 13y, N^1-(4-BROMO-2,6-DIFLUOROBENZYLIDENE)-N^4-(2,6-DIMETHYLPHENYL)SEMICARBAZONE]",,3.9,3.95,IC50 [1]: 4 ± 0.8 µM
"Cc1cccc(C)c1NC(=O)N/N=C/c1ccc(Br)cc1Cl [Compound 13z, N^1-(4-BROMO-2-CHLOROBENZYLIDENE)-N^4-(2,6-DIMETHYLPHENYL)SEMICARBAZONE]",,3.2,3.24,
"Cc1cccc(C)c1NC(=O)NNCc1ccc(Br)cc1 [Compound 14, 2-(4-BROMOBENZYL)-N-(2,6-DIMETHYLPHENYL)HYDRAZINECARBOXAMIDE]",,> 25,> 25,protection of cells from LT (in words) [1]: not protective
"C/C(=N\NC(=O)Nc1c(C)cccc1C)c1ccc(Br)cc1 [Compound 15, N^1-(4-BROMOPHENYLETHYLIDENE)-N^4-(2,6-DIMETHYLPHENYL)SEMICARBAZONE]",2.5,2.5,2.5,
"Cc1cccc(C)c1NC(=O)N(C)/N=C/c1ccc(Br)cc1 [Compound 16, N^1-2-(4-BROMOBENZYLIDENE)-N^4-(2,6-DIMETHYLPHENYL)1-METHYLHYDRAZINECARBOXAMIDE]",2,1.96,1.96,
"C#CCN(/N=C/c1ccc(Br)cc1)C(=O)Nc1c(C)cccc1C [Compound 17, 2-(4-BROMOBENZYLIDENE)-N-(2,6-DIMETHYLPHENYL)-1-(PROP-2-YN-1-YL)HYDRAZINECARBOXAMIDE]",> 12.5,> 12.5,,
"Cc1cccc(C)c1NC(=S)N/N=C/c1ccc(Br)cc1 [Compound 19a, N^1-(4-BROMOBENZYLIDENE)-N^4-(2,6-DIMETHYLPHENYL)THIOSEMICARBAZONE]",1.5,1.52,1.52,
"Cc1cccc(C)c1/N=C(\N)N/N=C/c1ccc(Br)cc1 [Compound 22, 2-(4-BROMOBENZYLIDENE)-N′-(2,6-DIMETHYLPHENYL)HYDRAZINECARBOXIMIDAMIDE]",13.8,,,
"C#CCN(/N=C/c1ccc(N=[N+]=[N-])cc1)C(=O)Nc1c(C)cccc1C [Compound 28, 2-(4-Azidobenzylidene)-N-(2,6-dimethylphenyl)-1-(prop-2-yn-1-yl)hydrazinecarboxamide]",,> 25,,protection of cells from LT (in words) [1]: did not offer any protection
"Cl.N [ammonium chloride, reference compound]",,,,cell-associated Lysotracker Red fluorescence (neutralization of acidic compartments) [3]: markedly decreased; EGFR stabilization at 60 minutes [4]: inhibit EGF-induced receptor degradation; IC50 [5]: 5000 µM
CCN(CC)CCCC(C)Nc1ccnc2cc(Cl)ccc12 (stereo not shown) [chloroquine],,,,IC50 [5]: 100 µM
"CCOC(=O)C1=C[C@@H](OC(CC)CC)[C@H](NC(C)=O)[C@@H](N)C1 [oseltamivir, reference compound]",,,,influenza virus infection (reporter activation) [6]: exhibited no protection
CCN(CC)CCCC(C)Nc1c2ccc(Cl)cc2nc2ccc(OC)cc12 (stereo not shown) [quinacrine],,,,IC50 [5]: 40 µM
"NC(=O)c1ncn([C@@H]2O[C@H](CO)[C@@H](O)[C@H]2O)n1 [ribavirin, reference compound]",,,,influenza virus infection (reporter activation) [6]: effectively blocked reporter activation
bafilomycin A1 [reference compound],,,,cell-associated Lysotracker Red fluorescence (neutralization of acidic compartments) [3]: markedly decreased; trafficking of Texas-red dextran to phagosomes [7]: Neither EGA nor bafilomycin A1 inhibited; phagocytic uptake of F. tularensis LVS [8]: Neither EGA nor bafilomycin A1 blocked
